For experiment [1], the system named is Cabbage Looper (Trichoplusia ni) ("CL"), second instar larvae. The experiment in a line: Bioassay on cabbage looper (CL), 128-well diet tray assay. Type of experiment: in vivo. The note with it: for pest or weed control at 50 µg/cm2: Trichoplusia ni; for CL rating: Table ABC, species CL, C = not tested, D = no activity noticed. A digest of the protocol:
(§1)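 Read-out: percent larval mortality per well, averaged over 8 wells. Incubation 25° C., 14:10 L:D photoperiod, 5–7 days, trays sealed with clear adhesive cover.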

In experiment [2] the test system is Beet Armyworm (Spodoptera exigua) ("BAW"), second instar larvae. The experiment in a line: Bioassay on beet armyworm (BAW), 128-well diet tray assay. The note with it: for pest or weed control at 50 µg/cm2: Spodoptera exigua; for BAW rating: Table ABC, species BAW, C = not tested, D = no activity noticed. Type of experiment: in vivo. A digest of the protocol: as §1

[3] abbreviates: read-out: CL (Biological Results, rating).
Setting [4] is: read-out: BAW (Biological Results, rating).

Read-outs that look alike come from different tables or passages of the source.

On to `Cc1ccc(OCC(F)(F)F)c(N2C(=O)CS/C2=N\C(=O)Nc2ccc(-c3ncn(-c4ccc(OC(F)(F)F)cc4)n3)cc2Cl)c1` [Compound J40, (Z)-1-(2-Chloro-4-(1-(4-(trifluoromethoxy)phenyl)-1H-1,2,4-triazol-3-yl)phenyl)-3-(3-(5-methyl-2-(2,2,2-trifluoroethoxy)phenyl)-4-oxothiazolidin-2-ylidene)urea], for which the pest or weed control at 50 µg/cm2 in experiment [1] (setting [3]) and in experiment [2] (setting [4]) was 50 to 100% each time.

Take `Cc1ccc(COCCF)c(N2C(=O)CS/C2=N\C(=O)Nc2ccc(-c3ncn(-c4ccc(OC(F)(F)F)cc4)n3)cc2F)c1` [Compound J551]: in experiment [1], the CL rating result was “A (50-100)”. Also, the BAW rating entry in experiment [2] was “A (50-100)”.

For `CC(C)c1cc(F)c(N(C)C)cc1N1C(=O)CS/C1=N\C(=O)Nc1ccc(-c2ncn(-c3ccc(OC(F)(F)F)cn3)n2)cc1F` [Compound J261, (Z)-1-(3-(5-(Dimethylamino)-4-fluoro-2-isopropylphenyl)-4-oxothiazolidin-2-ylidene)-3-(2-fluoro-4-(1-(5-(trifluoromethoxy)pyridin-2-yl)-1H-1,2,4-triazol-3-yl)phenyl)urea], the pest or weed control at 50 µg/cm2 in experiment [1] (setting [3]) and in experiment [2] (setting [4]) was 50 to 100% throughout.

Turning to `Cc1ccc(C(F)(F)F)c(N2C(=O)C(Cl)S/C2=N\C(=O)Nc2ccc(-c3ncn(-c4ccc(OC(F)(F)F)cc4)n3)cc2F)c1` (stereo not shown) [Compound J34, (Z)-1-(5-Chloro-3-(5-methyl-2-(trifluoromethyl)phenyl)-4-oxothiazolidin-2-ylidene)-3-(2-fluoro-4-(1-(4-(trifluoromethoxy)phenyl)-1H-1,2,4-triazol-3-yl)phenyl)urea], the pest or weed control at 50 µg/cm2 in experiment [1] (setting [3]) and in experiment [2] (setting [4]) was 50 to 100% in each case.

As to `COC(C)c1ccc(C)cc1N1C(=O)CS/C1=N\C(=O)Nc1ccc(-n2cnc(-c3ccc(OC(F)(F)F)cc3)n2)cc1C` (stereo not shown) [Compound J467, (Z)-1-(3-(2-(1-Methoxyethyl)-5-methylphenyl)-4-oxothiazolidin-2-ylidene)-3-(2-methyl-4-(3-(4-(trifluoromethoxy)phenyl)-1H-1,2,4-triazol-1-yl)phenyl)urea], the pest or weed control at 50 µg/cm2 in experiment [1] (read-out: CL rating) and in experiment [2] (read-out: BAW rating) was 50 to 100% in each case.

On to `COc1ccc(C(C)C)c(N2C(=O)CS/C2=N\C(=O)Nc2ccc(-c3ncn(-c4ccc(C(F)(F)F)cc4)n3)c(C)c2)c1` [Compound J5, (Z)-1-(3-(2-Isopropyl-5-methoxyphenyl)-4-oxothiazolidin-2-ylidene)-3-(3-methyl-4-(1-(4-(trifluoromethyl)phenyl)-1H-1,2,4-triazol-3-yl)phenyl)urea], for which the pest or weed control at 50 µg/cm2 in experiment [1] (setting [3]) and in experiment [2] (setting [4]) was 50 to 100% each time.

In the case of `Cc1ccc(COCc2nc3ccccc3s2)c(N2C(=O)CS/C2=N\C(=O)Nc2ccc(-c3ncn(-c4ccc(OC(F)(F)F)cc4)n3)cc2F)c1` [Compound J640, (Z)-1-(3-(2-((Benzo[d]thiazol-2-ylmethoxy)methyl)-5-methylphenyl)-4-oxothiazolidin-2-ylidene)-3-(2-fluoro-4-(1-(4-(trifluoromethoxy)phenyl)-1H-1,2,4-triazol-3-yl)phenyl)urea], the pest or weed control at 50 µg/cm2 in experiment [1] (read-out: CL rating) and in experiment [2] (read-out: BAW rating) was 50 to 100% each time.

With `Cc1ccc(COCC(F)(F)F)c(N2C(=O)CS/C2=N\C(=O)Nc2ccc(-c3ncn(-c4ccc(S(F)(F)(F)(F)F)cc4)n3)cc2F)c1` [Compound J422], the CL rating entry in experiment [1] was “A (50-100)”. Further, the BAW rating result in experiment [2] was “A (50-100)”.

With `Cc1ccc(COCC(F)(F)F)c(N2C(=O)CS/C2=N\C(=O)Nc2ccc(-c3ncn(-c4ccc(OCC#N)cc4)n3)cc2C)c1` [Compound J359, (Z)-1-(4-(1-(4-(Cyanomethoxy)phenyl)-1H-1,2,4-triazol-3-yl)-2-methylphenyl)-3-(3-(5-methyl-2-((2,2,2-trifluoroethoxy)methyl)phenyl)-4-oxothiazolidin-2-ylidene)urea], the pest or weed control at 50 µg/cm2 in experiment [1] (read-out: CL rating) and in experiment [2] (read-out: BAW rating) was 50 to 100% each time.

For `CCCc1ccc(C)cc1N1C(=O)CS/C1=N\C(=O)Nc1ccc(-c2ncn(-c3ccc(C(F)(F)F)cn3)n2)cc1C` [Compound J293, (Z)-1-(3-(5-Methyl-2-propylphenyl)-4-oxothiazolidin-2-ylidene)-3-(2-methyl-4-(1-(5-(trifluoromethyl)pyridin-2-yl)-1H-1,2,4-triazol-3-yl)phenyl)urea], the pest or weed control at 50 µg/cm2 in experiment [1] (setting [3]) and in experiment [2] (setting [4]) was 50 to 100% throughout.

On to `Cc1ccc(COCC(F)(F)F)c(N2C(=O)CS/C2=N\C(=O)Nc2ccc(-c3ncn(-c4ccc(C(F)(F)F)cc4)n3)cc2C)c1` [Compound J167, (Z)-1-(3-(5-Methyl-2-((2,2,2-trifluoroethoxy)methyl)phenyl)-4-oxothiazolidin-2-ylidene)-3-(2-methyl-4-(1-(4-(trifluoromethyl)phenyl)-1H-1,2,4-triazol-3-yl)phenyl)urea], for which the pest or weed control at 50 µg/cm2 in experiment [1] (setting [3]) and in experiment [2] (setting [4]) was 50 to 100% each time.

Take `COc1cc(COCC(F)(F)F)c(N2C(=O)CS/C2=N\C(=O)Nc2ccc(-c3ncn(-c4ccc(S(F)(F)(F)(F)F)cc4)n3)cc2F)cc1OC` [Compound J561]: the CL rating entry in experiment [1] is “A (50-100)”. Also, the BAW rating result in experiment [2] is recorded as “A (50-100)”.

Consider `COC(C)c1ccc(C)cc1N1C(=O)CS/C1=N\C(=O)Nc1ccc(-c2ncn(-c3ccc(C(F)(F)F)cn3)n2)cc1F` (stereo not shown) [Compound J280, (Z)-1-(2-Fluoro-4-(1-(5-(trifluoromethyl)pyridin-2-yl)-1H-1,2,4-triazol-3-yl)phenyl)-3-(3-(2-(1-methoxyethyl)-5-methylphenyl)-4-oxothiazolidin-2-ylidene)urea], for which the pest or weed control at 50 µg/cm2 in experiment [1] (setting [3]) and in experiment [2] (setting [4]) was 50 to 100% in each case.

For `Cc1ccc(COCC(F)(F)F)c(N2C(=O)CS/C2=N\C(=O)Nc2ccc(-c3ccn(-c4ccc(C(F)(F)F)nn4)n3)cc2F)c1` [Compound J390], the CL rating result in experiment [1] is “A (50-100)”. Besides, the BAW rating entry in experiment [2] is listed as “A (50-100)”.

On to `Cc1ccc(COCC(F)(F)F)c(N2C(=O)CS/C2=N\C(=O)Nc2ccc(-c3cn(-c4ccc(C(F)(F)F)cn4)cn3)cc2F)c1` [Compound J487, (Z)-1-(2-Fluoro-4-(1-(5-(trifluoromethyl)pyridin-2-yl)-1H-imidazol-4-yl)phenyl)-3-(3-(5-methyl-2-((2,2,2-trifluoroethoxy)methyl)phenyl)-4-oxothiazolidin-2-ylidene)urea], for which the pest or weed control at 50 µg/cm2 in experiment [1] (read-out: CL rating) and in experiment [2] (read-out: BAW rating) was 50 to 100% in each case.

For the molecule `COc1cc(-c2ncn(-c3ccc(OC(F)(F)F)cc3)n2)ccc1NC(=O)/N=C1\SCC(=O)N1c1cc(C)ccc1OCCC(F)(F)F` [Compound J91, (Z)-1-(2-Methoxy-4-(1-(4-(trifluoromethoxy)phenyl)-1H-1,2,4-triazol-3-yl)phenyl)-3-(3-(5-methyl-2-(3,3,3-trifluoropropoxy)phenyl)-4-oxothiazolidin-2-ylidene)urea], the pest or weed control at 50 µg/cm2 in experiment [1] (setting [3]) and in experiment [2] (setting [4]) was 50 to 100% throughout.

Turning to `Cc1ccc(COCC(F)(F)F)c(N2C(=O)CS/C2=N\C(=O)Nc2ccc(-c3nc(-c4ccc(OC(F)(F)F)cc4)no3)cc2F)c1` [Compound J427, (Z)-1-(2-Fluoro-4-(3-(4-(trifluoromethoxy)phenyl)-1,2,4-oxadiazol-5-yl)phenyl)-3-(3-(5-methyl-2-((2,2,2-trifluoroethoxy)methyl)phenyl)-4-oxothiazolidin-2-ylidene)urea], the pest or weed control at 50 µg/cm2 in experiment [1] (read-out: CL rating) and in experiment [2] (read-out: BAW rating) was 50 to 100% throughout.

As for `Cc1ccc(COCC(F)(F)F)c(N2C(=O)CS/C2=N\C(=O)Nc2ccc(-c3ncn(-c4ccc(SC(F)(F)F)cc4)n3)cc2F)c1` [Compound J186, (Z)-1-(2-Fluoro-4-(1-(4-((trifluoromethyl)thio)phenyl)-1H-1,2,4-triazol-3-yl)phenyl)-3-(3-(5-methyl-2-((2,2,2-trifluoroethoxy)methyl)phenyl)-4-oxothiazolidin-2-ylidene)urea], the pest or weed control at 50 µg/cm2 in experiment [1] (setting [3]) and in experiment [2] (setting [4]) was 50 to 100% in each case.

For `CCc1cc(-c2ncn(-c3ccc(OC(F)(F)F)cc3)n2)ccc1NC(=O)/N=C1\SCC(=O)N1c1cc(N(C)C)ccc1OCCC(F)(F)F` [Compound J110, (Z)-1-(3-(5-(Dimethylamino)-2-(3,3,3-trifluoropropoxy)phenyl)-4-oxothiazolidin-2-ylidene)-3-(2-ethyl-4-(1-(4-(trifluoromethoxy)phenyl)-1H-1,2,4-triazol-3-yl)phenyl)urea], the pest or weed control at 50 µg/cm2 in experiment [1] (setting [3]) and in experiment [2] (setting [4]) was 50 to 100% each time.

As to `Cc1ccc(COCC(F)(F)F)c(N2C(=O)CS/C2=N\C(=O)Nc2ccc(-c3ncn(-c4cccc(C(F)(F)F)c4)n3)cc2C)c1` [Compound J727], the CL rating entry in experiment [1] is given as “A (50-100)”. Also, in experiment [2], the BAW rating entry is listed as “A (50-100)”.

For `Cc1ccc(COCC(F)(F)F)c(N2C(=O)CS/C2=N\C(=O)Nc2ccc(-c3ncn(-c4cccc(OC(F)(F)F)c4)n3)cc2C)c1` [Compound J722], in experiment [1], the CL rating result is listed as “A (50-100)”. Further, the BAW rating entry in experiment [2] is on record as “A (50-100)”.

With `N#Cc1ccc(OCCC(F)(F)F)c(N2C(=O)CS/C2=N\C(=O)Nc2ccc(-c3ncn(-c4ccc(SC(F)(F)F)cc4)n3)cc2)c1` [Compound J392, (Z)-1-(3-(5-Cyano-2-(3,3,3-trifluoropropoxy)phenyl)-4-oxothiazolidin-2-ylidene)-3-(4-(1-(4-((trifluoromethyl)thio)phenyl)-1H-1,2,4-triazol-3-yl)phenyl)urea], the pest or weed control at 50 µg/cm2 in experiment [1] (read-out: CL rating) and in experiment [2] (read-out: BAW rating) was 50 to 100% each time.

`Cc1cc(-c2ncn(-c3ccc(OC(F)(F)F)cc3)n2)ccc1NC(=O)/N=C1\SCC(=O)N1c1cccc(C)c1COCC(F)(F)F` [Compound J576]: the CL rating result in experiment [1] is “A (50-100)”. For the same molecule, the BAW rating entry in experiment [2] is given as “A (50-100)”.

Source of the values: US20230077362A1 (CORTEVA AGRISCIENCE LLC, priority 2019, published 2023).
